Laboratory results: patent US6251932A, “Immunophilin ligands” (ASTA Medica AG, priority 1998, dated 2001)
Read-outs that look alike come from different tables or passages of the source.

Tests used:
[1] = system: T cells stimulated with OKT-3; experiment: IL-2 proliferation test: 3H-thymidine incorporation in T cells stimulated with OKT-3 (CD3-induced proliferation); type: cell-based; conditions: Compound [10 μmol], OKT-3 1 μg/ml, 45 hours; for inhibition: T-cell
Description: The IL-2 proliferation test is based on the incorporation of ^3 H-thymidine in T cells stimulated with OKT-3 (human anti-CD-3-antibodies) and is carried out by inoculating 100,000 T cells into microtitre plates in 150 μl of culture medium per well, stimulated by addition of OKT-3 (1 μg/ml) and incubated for 45 hours in each case with one of the compounds of Formula I. After this incubation time, 10 μl of the ^3 H-thymidine solution (0.5 μCi) are pipetted into each well. The mixture is then incubated in a 5% CO2 atmosphere at 37° C. for 6 hours. After harvesting the cells, the radioactivity is quantified in a B-counter.

human cyclophilin B = human cyclophilin B (Homo sapiens, UniProt P23284); experiment: PPIase test: inhibition of human cyclophilin B (Suc-Ala-Ala-Pro-Phe-Nan, chymotrypsin); type: biochemical; conditions: Compound [10 μmol]; preincubated 15 minutes at 4° C. with 10 nmol Cyp B
human cyclophilin B, sequence (P23284 34-216): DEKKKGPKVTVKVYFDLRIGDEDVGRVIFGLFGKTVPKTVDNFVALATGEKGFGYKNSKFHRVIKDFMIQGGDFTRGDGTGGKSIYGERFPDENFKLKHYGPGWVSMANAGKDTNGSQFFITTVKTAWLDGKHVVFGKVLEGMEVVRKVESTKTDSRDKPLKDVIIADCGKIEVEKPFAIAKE
Description: The compounds of Formula I of the present invention are distinguished by immunophilin binding and inhibit isomerase activity. This prolyl isomerase activity is tested according to a conventional, well known enzyme test described in G. Fischer, H. Bang. Mech, Biomed. Biochim. Acta, 43, 1101-1111; G. Fischer, H. Bang, A Schellenberger, Biochim. Biophys. Acta, 791, 87-97, 1984; D. H. Rich et al., J. Med. Chem. 38, 4164-4170, 1995.
The compounds of Formula I of the present invention are distinguished by immunophilin binding and inhibit its peptidyl-prolyl cis-trans isomerase (PPlase) activity. […] This PPlase activity is determined by the aforementioned well known enzyme test.
The compounds of Formula I are preincubated at 4° C. for 15 minutes together with 10 nmol of Cyp B. The enzyme reaction is started using the test peptide Suc-Ala-Ala-Pro-Phe-Nan after addition of chymotrypsin and HEPES buffer. The change in extinction at 390 nm is then monitored and analyzed. The photometrically determined change in extinction results from two subreactions: a) the rapid chymotryptic cleavage of the trans peptide; b) the nonenzymatic cis-trans isomerization, which is catalysed by cyclophilins.

[2] = kidneys, neurotoxicity; cited from earlier work
IL-2 proliferation [3] = experiment: Inhibition of IL-2 proliferation (published indoline-2-carboxamide); type: cell-based; conditions: 10 μmol; new measurements
Source text: A further compound having immunosuppressant properties was discovered during the screening of substance mixtures (G. Quinkert, H. Bang and D. Reichert, Helv. Chim. Acta 1996, 79, 1260).

IL-2 proliferation [4] = conditions: published, cited from earlier work
FKBP = conditions: cited from earlier work
[5] = system: bronchial asthma and underlying inflammations; conditions: animal experiments and clinical studies; cited from earlier work

| inhibition at 10 µM (human cyclophilin B) [%] | Compound | inhibition [1] [%] | further results |
| --- | --- | --- | --- |
| 20 to 40 | COCCNC(=O)[C@@H]1Cc2ccccc2N1S(=O)(=O)c1cccc2cccnc12 [Example 10, (2S)-1-[(8-quinolinylsulfonyl)]-N-(2-methoxyethyl)indolinecarbamide] | 59 | – |
| – | CO[C@H]1C[C@@H]2CC[C@@H](C)[C@@](O)(O2)C(=O)C(=O)N2CCCC[C@H]2C(=O)O[C@H]([C@H](C)C[C@@H]2CC[C@@H](O)[C@H](OC)C2)CC(=O)[C@H](C)/C=C(\C)[C@@H](O)[C@@H](OC)C(=O)[C@H](C)C[C@H](C)/C=C/C=C/C=C/1C [rapamycin] | – | side effects [2]: manifold side effects, in particular of the kidneys, and neurotoxicity |
| 0 to 20 | COC(=O)/C=C/c1ccc(NC(=O)[C@@H]2Cc3ccccc3N2S(=O)(=O)c2ccc(NC(C)=O)cc2)cc1 [Example 13, Methyl (E)-({(2S)-1-[4(acetylamino)phenylsulfonyl]indoln-2-yl}-carbonyl)-4-(aminophenyl)acrylate] | 46 | – |
| 0 to 20 | CC(=O)Nc1ccc(S(=O)(=O)N2c3ccccc3C[C@@H]2C(=O)O)cc1 [Example 21, (2R)-[4-(acetylamino)phenylsulfonyl]indoline-2-carboxylic acid] | 12 | – |
| 20 to 40 | Cc1ccc(S(=O)(=O)N2c3ccccc3C[C@H]2C(=O)N2c3ccccc3C[C@H]2C(=O)NCCCn2ccnc2)cc1 [Example 16, (2S)-1-[((2S)-1-(4-methylphenylsulfonyl)indolin-2-yl)carbonyl]-N^3-(N-propylimidazole)indoline-2-carbamide] | 54 | – |
| 30 | COC(=O)[C@H]1Cc2ccccc2N1C(=O)[C@H]1Cc2ccccc2N1S(=O)(=O)c1ccc(NC(C)=O)cc1 (racemic) [Example 22, Methyl (2RS)-1-({(2RS)-1-[4-(acetylamino)phenylsulfonyl]indolin-2-yl}carbonyl)indoline-2-carboxylate] | 43 | – |
| 40 | Cc1ccc(S(=O)(=O)N2c3ccccc3C[C@H]2C(=O)N2c3ccccc3C[C@H]2C(=O)NCCc2ccccn2)cc1 [Example 18, (2S)-1-[((2S)-1-(4-methylphenylsulfonyl)indolin-2-yl)carbonyl]-N^2-(ethyl-2-pyridine)indoline-2-carbamide] | 59 | – |
| 20 | COCCNC(=O)[C@@H]1Cc2ccccc2N1C(=O)[C@@H]1Cc2ccccc2N1S(=O)(=O)c1cccc2ccccc12 [Example 14, (2S)-1-[((2S)-1-(1-naphthalenylsulfonyl)indolin-2-yl)carbonyl]-N-(2-methoxyethyl)indoline-2-carbamide] | 48 | – |
| 0 to 20 | COC(=O)[C@H]1Cc2ccccc2N1S(=O)(=O)c1ccc(NC(C)=O)cc1 [Example 20, Methyl (2R)-[4-(acetylamino)phenylsulfonyl]indoline-2-carboxylate] | 15 | – |
| 60 | COC(=O)[C@H](CCCCNC(=O)OCc1ccccc1)NC(=O)[C@@H]1Cc2ccccc2N1S(=O)(=O)c1ccc(NC(C)=O)cc1 [Example 12, (S)-N-{(2S)-1-[4-(acetylamino)phenylsulfonyl]indolin-2-yl}carbonyl-N-(benzyloxycarbonyl)lysine methyl ester] | 79 | – |
| 40 to 60 | COCCNC(=O)[C@@H]1Cc2ccccc2N1C(=O)C1CCN(S(=O)(=O)c2ccc(N)cc2)CC1 [Example 8, (2S)-1-[((2S)-1-(4-aminophenylsulfonyl)-4-piperidinyl)carbonyl]-N-(2-methoxyethyl)indoline-2-carbamide] | 71 | – |
| 40 | COCCNC(=O)[C@@H]1Cc2ccccc2N1C(=O)[C@@H]1Cc2ccccc2N1S(=O)(=O)c1ccc(NC(C)=O)cc1 [Example 1] | 83 | – |
| 40 | Cc1ccc(S(=O)(=O)N2c3ccccc3C[C@H]2C(=O)N2c3ccccc3C[C@H]2C(=O)NCCN2CCOCC2)cc1 [Example 17, (2S)-1-[((2S)-1-(4-methylphenylsulfonyl)indolin-2-yl)carbonyl]-N^2-(N-ethylmorpholine)indoline-2-carbamide] | 57 | – |
| 20 to 40 | COCCNC(=O)C1Cc2ccccc2N1C(=O)C1Cc2ccccc2N1S(=O)(=O)c1ccc(NC(C)=O)cc1 (racemic) [Example 5, (2R,S)-1-[((2R,S)-1-(4-acetylaminophenylsulfonyl)indolin-2-yl)-carbonyl]-N-(2-methoxyethyl)indoline-2-carbamide] | 85 | – |
| – | CC(=O)Nc1ccc(S(=O)(=O)N2c3ccccc3C[C@H]2C(=O)N[C@@H](CC(C)C)C(=O)O)cc1 [Example 11] | – | CD3-induced inhibition of proliferation in [%] [1]: 61%; Inhibition [%] of PPIase activity (human cyclophilin B): 40% |
| 40 | COCCNC(=O)[C@@H]1Cc2ccccc2N1C(=O)[C@@H]1CCCN1S(=O)(=O)c1ccc(N)cc1 [Example 7, (^2 S)-1-[((2S)-1-(4-aminophenylsulfonyl)prolyl)carbonyl]-N-(2-methoxyethyl)indoline-2-carbamide] | 79 | – |
| – | indoline-2-carboxamide | – | IL-2-dependent inhibition of proliferation (IL-2 proliferation [3]): 29%; inhibition of IL-2 proliferation (IL-2 proliferation [4]; 1 μmol): 12%; inhibition of IL-2 proliferation (IL-2 proliferation [4]; 10 μmol): 77% |
| 40 | COCCNC(=O)[C@@H]1Cc2ccccc2N1C(=O)[C@H]1Cc2ccccc2N1S(=O)(=O)c1ccc(NC(C)=O)cc1 [Example 3] | 84 | – |
| 0 to 20 | CC(=O)Nc1ccc(S(=O)(=O)N2c3ccccc3C[C@@H]2C(=O)N2c3ccccc3C[C@@H]2C(=O)O)cc1 (racemic) [Example 23, (2RS)-1-({(2RS)-1-[4-(acetylamino)phenylsulfonyl]indolin-2-yl}-carbonyl)indoline-2-carboxylic acid] | 46 | – |
| – | C=CC[C@@H]1/C=C(\C)C[C@H](C)C[C@H](OC)[C@H]2O[C@@](O)(C(=O)C(=O)N3CCCC[C@H]3C(=O)O[C@H](/C(C)=C/[C@@H]3CC[C@@H](O)[C@H](OC)C3)[C@H](C)[C@@H](O)CC1=O)[C@H](C)C[C@@H]2OC [FK 506] | – | binding to FKBP (FKBP): bind with high affinity; therapeutic effect in bronchial asthma [5]: favorable therapeutic in bronchial asthma and underlying inflammations; side effects [2]: manifold side effects, in particular of the kidneys, and neurotoxicity |
| 40 to 60 | COCCNC(=O)[C@@H]1Cc2ccccc2N1C(=O)C1CCN(S(=O)(=O)c2ccc(NC(C)=O)cc2)CC1 [Example 9] | 75 | – |
| 40 | Cc1ccc(S(=O)(=O)N2c3ccccc3C[C@H]2C(=O)N2c3ccccc3C[C@H]2C(=O)Nc2ccncc2)cc1 [Example 19, (2S)-1-[((2S)-1-(4-methylphenylsulfonyl)indolin-2-yl)carbonyl]-(4-pyridine)indoline-2-carbamide] | 64 | – |
| 60 | COCCNC(=O)[C@H]1Cc2ccccc2N1C(=O)[C@H]1Cc2ccccc2N1S(=O)(=O)c1ccc(NC(C)=O)cc1 [Example 4] | 85 | – |
| 20 | COCCNC(=O)[C@@H]1Cc2ccccc2N1C(=O)[C@@H]1Cc2ccccc2N1S(=O)(=O)c1ccc2ccccc2c1 [Example 15, (2S)-1-[((2S)-1-(2-Naphthalenylsulfonyl)indolin-2-yl)carbonyl]-N-(2-methoxyethyl)indoline-2-carbamide] | 56 | – |
| 40 | COCCNC(=O)[C@H]1Cc2ccccc2N1C(=O)[C@@H]1Cc2ccccc2N1S(=O)(=O)c1ccc(NC(C)=O)cc1 [Example 2] | 85 | – |
| 40 | COCCNC(=O)[C@@H]1Cc2ccccc2N1C(=O)[C@@H]1Cc2ccccc2N1S(=O)(=O)c1ccc(N)cc1 [Example 6, (2S)-1-[((2S)-1-(4-aminophenylsulfonyl)indolin-2-yl)carbonyl]-N-(2-methoxyethyl)indoline-2-carbamide] | 84 | – |
